Measurements from US6541463B1, “Inhibitors of type 5 and type 3 17β-hydroxysteroid dehydrogenase and methods for their use” (Endorecherche, Inc., priority 1998, dated 2003).
Read-outs that look alike come from different tables or passages of the source.

Tests used:
[1] = biological target: T1, human type 2 17β-hydroxysteroid dehydrogenase (Homo sapiens, UniProt P37059); test: Enzymatic assay for type 2 17β-HSD; type: biochemical; conditions: for IC50: read-out: Inhibition Type 2 17β-HSD Activity IC50
T1 construct: expressed in transfected cells; host or cells: 293 cells, transient transfection; microsomal fraction (100 000×g pellet)
T1 sequence (P37059 1-387): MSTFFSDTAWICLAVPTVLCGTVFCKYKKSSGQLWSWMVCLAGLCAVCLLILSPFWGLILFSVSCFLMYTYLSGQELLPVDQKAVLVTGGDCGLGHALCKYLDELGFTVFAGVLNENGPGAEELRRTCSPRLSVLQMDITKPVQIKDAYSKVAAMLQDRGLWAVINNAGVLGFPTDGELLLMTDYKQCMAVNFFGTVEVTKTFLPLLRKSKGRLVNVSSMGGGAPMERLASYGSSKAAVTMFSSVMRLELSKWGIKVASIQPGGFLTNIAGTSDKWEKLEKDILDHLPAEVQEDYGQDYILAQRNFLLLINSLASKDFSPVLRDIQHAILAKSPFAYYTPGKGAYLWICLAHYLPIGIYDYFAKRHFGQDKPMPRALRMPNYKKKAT
Method in brief: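 Enzymes from transiently transfected 293 cells (cytosol for type 1, microsomes for types 2 and 3 17β-HSD) were incubated 1 h at 37° C in pH 7.4 phosphate/20% glycerol with 2 mM NADPH or NAD+ and 0.1 μM 14C-substrate (estrone, 4-dione, or DHT for 3α-HSD); metabolites quantified by TLC; preliminary % inhibition at 3.10^−6M.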

[2] = biological target: T2, human type 5 17β-hydroxysteroid dehydrogenase (Homo sapiens, UniProt P42330); test: Reversibility of human type 5 17β-HSD inhibitory activity (preincubation, wash); type: cell-based
T2 construct: screen again a human placental λgt11 cDNA to get the full length cDNA clone; expressed in transfected cells; host or cells: human embryonal kidney 293 cells (pCMV / pCMV-neo vector)
T2 sequence (P42330 1-323): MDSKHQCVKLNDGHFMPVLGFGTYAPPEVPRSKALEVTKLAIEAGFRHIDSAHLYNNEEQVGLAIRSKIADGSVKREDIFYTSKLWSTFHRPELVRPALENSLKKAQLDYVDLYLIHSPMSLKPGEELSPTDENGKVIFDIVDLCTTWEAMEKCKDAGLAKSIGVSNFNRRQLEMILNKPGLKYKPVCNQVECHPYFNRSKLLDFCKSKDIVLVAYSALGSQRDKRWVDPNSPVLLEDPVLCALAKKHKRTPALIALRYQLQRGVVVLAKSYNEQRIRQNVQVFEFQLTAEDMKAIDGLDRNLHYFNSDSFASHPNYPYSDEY
Method: In column 3, the reversibility of the inhibition of type 5 17β-hydroxysteroid dehydrogenase activity expressed in percentage of control is reported. The manner in which the reversibility is determined is described in “Efficacy of Preferred Inhibitors: V. Reversibility of Human Type 5 17β-HSD Inhibitory Activity”. Lower number is desirable. Blank means that a determination was not done.
Determination of activity was performed as described (Luu-The et al., Mol. Endocrionol. 4: 268-275, 1990, Lachance et al., J. Biol. Chem. 265: 20469-20475, 1990; Luu-The et al., DNA & Cell Biol. 14: 511-518, 1995). Briefly, 0.1 μM of the indicated ^14C-labeled substrate (Dupont Inc. (Canada), namely, DHEA, 4-androstene-3,17-dione (Δ4), in absence or presence of increasing concentration of preferred inhibitor of the invention, was added to freshly changed culture medium in a 6-well culture plate. After incubation for 1 h, the steroids were extracted twice with 2 ml of ether. The organic phase were pooled and evaporated to dryness. The steroids were solubilized in 50 μl of dichloromethane, applied to Silica gel 60 thin layer chromatography (TLC) plate (Merck, Darmstad, Germany) then separated by migration in the toluene-acetone (4:1) solvent system. […] Transfection could be also performed with HeLa, SW-13, 293, COS-1 cells, the preferred cell line is 293 cells.
The reversibility assay was performed as described above for the standard type 5 17β-HSD enzymatic assay, except that before adding the ^14C-labeled substrate, the cells were preincubated with 0.3 μM of the indicated inhibitor for 1 h, (or the indicated time interval), followed by two washes with phosphate saline buffer (PBS).

SMILES | IC50 ([1]; Table 4′) | Reversibility ((%) of control) ([2]; Table 4′) | further results
CC1(C)CCC2(CCC3C4CCc5c(cc(Cl)c(O)c5Cl)C4CCC32C)OC1=O (stereo not drawn) [EM-1391-CS] | > 10 µM | 49 % of control | 
COCCOc1cc2c(cc1C(=O)N(C)C)C1CCC3(C)C(CCC34CCC(C)(C)C(=O)O4)C1CC2 (stereo not drawn) [EM-1413-CS] | > 10 µM | 37 % of control | inhibition ([1]; Table 4′, bracketed values, 3 · 10^−8M, read-out: Inhibition Type 2 17β-HSD Activity [% Inh. at 3 · 10^−8M]): 69%
CCC[C@@H]1CC2C3C=CC4=CC(=O)CC[C@]4(C)C3CC[C@]2(C)C1=O (stereo partly drawn) [EM-1097] |  |  | inhibition at 3 µM ([1]; 3 · 10^−6 M, value in square brackets, read-out: Inhibition Type 2 17B-HSD Activity [% Inh. at 3 · 10^−6 M]): 53%; Reversibility ((%) of control) [2]: 45%
CC1(C)CCC2(CCC3C4CCc5cc(OS(C)(=O)=O)ccc5C4CCC32C)OC1=O (stereo not drawn) [EM-1365-CS] | > 10 µM | 49 % of control | 
CC1(C)CCC2(CCC3C4CCc5c(cc(Cl)c(OS(C)(=O)=O)c5Cl)C4CCC32C)OC1=O (stereo not drawn) [EM-1392-CS] | > 10 µM | 38 % of control | 
CN(C)CCOc1ccc2c(c1)CCC1C2CCC2(C)C1CCC21CCC(C)(C)C(=O)O1 (stereo not drawn) [EM-1389-CS] | > 10 µM | 40 % of control | 
COc1ccc2c(c1)C(=O)CC1C3CCC4(CCC(C)(C)C(=O)O4)C3(C)CCC21O (stereo not drawn) [EM-1386] | > 10 µM | 54 % of control | 
COc1c(Br)cc2c(c1Br)CCC1C2CCC2(C)C1CCC21CCC(C)(C)C(=O)O1 (stereo not drawn) [EM-1385-CS] | > 10 µM | 60 % of control | 
COc1ccc(CC(=O)O[C@]2(C(C)=O)CCC3C4C=C(C)C5=CC(=O)C=C[C@]5(C)C4CC[C@@]32C)cc1 (stereo partly drawn) [EM-1291] |  |  | Inhibition Type 2 17β-HSD Activity [% Inh.] ([1]; at 3.10^-8M): [67] %; Reversibility ((%) of control) [2]: 27%
COCCOc1cc2c(cc1C#N)C1CC[C@@]3(C)C(CC[C@@]34CCC(C)(C)C(=O)O4)C1CC2 (stereo partly drawn) [EM-1396] | > 10 µM | 28 % of control | 
COCCOc1cc2c(cc1C(=O)OC)C1CC[C@@]3(C)C(CC[C@@]34CCC(C)(C)C(=O)O4)C1CC2 (stereo partly drawn) [EM-1402-CS, 2-Carbomethoxy-3-(2″-methoxyethyloxy)-1,3,5(10)-estratrien 17(R)-spiro-2′-(5′,5′-dimethyl-6′-oxo)tetrahydropyran] | > 10 µM | 25 % of control | 
CC1(C)CC[C@@]2(CCC3C4CCc5cc(F)ccc5C4CC[C@@]32C)OC1=O (stereo partly drawn) [EM-1157-CS] | > 10 µM | 28 % of control | 
COc1cc2c(cc1C)C1CCC3(C)C(CCC34CCC(C)(C)C(=O)O4)C1CC2 (stereo not drawn) [EM-1412-CS] | > 10 µM | 71 % of control | 
COCCOc1cc2c(cc1Cl)C1CCC3(C)C(CCC34CCC(C)(C)C(=O)O4)C1CC2 (stereo not drawn) [EM-1371-CS] | > 10 µM | 40 % of control | 
COCCOc1cc2c(cc1C(N)=O)C1CC[C@@]3(C)C(CC[C@@]34CCC(C)(C)C(=O)O4)C1CC2 (stereo partly drawn) [EM-1424, 2-Carbamoyl-3-(2″-methoxyethyloxy)-1,3,5(10)-estratrien 17(R)-spiro-2′-(5′,5′-dimethyl-6′-oxo)tetrahydropyran] | > 10 µM | 17 % of control | 
CC1(C)CCC2(CCC3C4CCc5cc(OCCN6CCCCC6)ccc5C4CCC32C)OC1=O [EM-1390-CS, 3-(N-piperidyl-ethyl)-1,3,5(10)-estratrien-17(R)-spiro-2′-(5′,5′-dimethyl-6′-oxo)-tetrahydropyran] | > 10 µM | 50 % of control | 
